Laboratory results from patent publication US10871495B2, “Biomarkers of polycystic kidney disease and uses thereof” (Genzyme Corporation, priority 2014, dated 2020).

Tests used:
jck mice [1] = experiment: Immunoblot of marker levels in urinary exosomes of jck mice treated with GCS inhibitor; assay type: in vivo, mouse; conditions: jck mice treated continuously for 5 weeks (0.225% in diet), vs control mice, FIG. 3
Description: (§1) C57BL/6J jck/+ mice were maintained for crossing. The cystic jck/jck mice were genotyped as previously described (Smith et al., J. Am. Soc. Nephrol. 17:2821-2831, 2006). Pcy mice were maintained on a CD1 genetic background as previously described (Takahashi et al., J. Am. Soc. Nephrol. 1:980-989, 1991). GCS inhibitor C9 was administered ad libitum to jck and pcy mice by mixing in powdered 5053 diet at 0.225% from 26 to 64 days and 4 to 30 weeks of age, respectively (as described in Natoli et al., Nature Medicine 16:788-792, 2010). Urine samples from the mice were collected in metabolic cages over a 24-hour period and stored at −80° C.
(§2) Exosomes were isolated from pooled urine samples (animal studies) or mid void urine samples (human samples) by ultracentrifugation at 100,000 g for 2 hours. Following ultracentrifugation, the exosome pellet was resuspended in 2.5× Laemmli Buffer (5×: 15% SDS, 0.575 M sucrose, 0.325 M Tris, pH 6.8, 5% beta-mercapto ethanol, and 0.002% bromophenol blue) for sodium dodecyl sulfate-polyacrylamide gel electrophoresis (SDS-PAGE) and immunoblot analysis.
(§3) Kidney samples were homogenized on ice in radioimmunoprecipitation assay (RIPA) buffer (Boston BioProducts, Ashland, Mass.) containing 1 mM dithiothreitol, 5 mM ethylenediaminetetraacetic acid (EDTA), 2 mM NaF, 1 mM Na3VO4 (all supplied by Sigma-Aldrich, St. Louis, Mo.), Pefabloc SC and Complete protease inhibitor cocktail (both from Roche, Basel, Switzerland). Protein concentration was determined by BCA protein assay (Pierce, Rockford, Ill.). The samples were loaded onto 4-12% NuPage Bis-Tris gels following the manufacturer's protocols (Invitrogen, Grand Island, N.Y.). Electrophoretic transfer of the proteins in the gel onto nitrocellulose was performed in a semi-dry apparatus according to the manufacturer's instructions (Invitrogen). After electrophoretic transfer, the resulting membranes were blocked with 5% non-fat milk in tris-buffered saline (TBS) containing 0.1% Tween-20 and incubated with primary antibodies overnight at 4° C. The primary antibodies were detected with horseradish peroxidase-labeled secondary antibodies at a 1:10,000 dilution (Promega, Fitchburg, Wis.). […] The primary antibodies to the following antigenes were used: PCNA (DAKO, Carpinteria, Calif.), cyclin D1, S6, phospho-S6 (Ser235/236), phospho-AKT (ser473), total ERK, phospho-ERK (Thr202/Tyr204) (Cell Signaling Technology, Danvers, Mass.), cyclin D3, total AKT, caspase-2, RBBP (BD Biosciences, Billerica, Mass.), MEK1 (Upstate Biotechnology, Lake Placid, N.Y.), aquaporin-2 (Millipore, Billerica, Mass.) β-actin, TSG101 (Abcam, Cambridge, Mass.), ALIX (Santa Cruz Biotechnology, Dallas, Tex.), and GAPDH (US Biological, Salem, Mass.).
A further set of experiments was performed to determine whether the same markers could be used to determine the efficacy of a treatment for PKD in a patient having PKD. In these experiments, urine samples from jck mice that were treated with GCS inhibitor C9 continuously for 5 weeks were gathered (FIG. 2) and the levels of each biomarker were analyzed in urine exosomes and kidney lysate samples. […] The data in FIG. 3 show, e.g., that the levels of PCNA, cyclin D3, RBBP, MEK, Erk, phosphorylated ERK, Akt, phosphorylated Akt, S6, phosphorylated S6, and caspase-2 are decreased in kidney lysate samples from jck mice treated with a GCS inhibitor as compared to the levels in kidney lysate samples from control mice. […]

pcy mice [2] = experiment: Immunoblot of marker levels in urinary exosomes of pcy mice treated with GCS inhibitor; assay type: in vivo, mouse; conditions: pcy mice treated for thirty weeks (0.225% in diet), vs untreated mice, FIG. 4
Description: as §1, §2
Kidney samples were homogenized on ice in radioimmunoprecipitation assay (RIPA) buffer (Boston BioProducts, Ashland, Mass.) containing 1 mM dithiothreitol, 5 mM ethylenediaminetetraacetic acid (EDTA), 2 mM NaF, 1 mM Na3VO4 (all supplied by Sigma-Aldrich, St. Louis, Mo.), Pefabloc SC and Complete protease inhibitor cocktail (both from Roche, Basel, Switzerland). Protein concentration was determined by BCA protein assay (Pierce, Rockford, Ill.). The samples were loaded onto 4-12% NuPage Bis-Tris gels following the manufacturer's protocols (Invitrogen, Grand Island, N.Y.). Electrophoretic transfer of the proteins in the gel onto nitrocellulose was performed in a semi-dry apparatus according to the manufacturer's instructions (Invitrogen). After electrophoretic transfer, the resulting membranes were blocked with 5% non-fat milk in tris-buffered saline (TBS) containing 0.1% Tween-20 and incubated with primary antibodies overnight at 4° C. The primary antibodies were detected with horseradish peroxidase-labeled secondary antibodies at a 1:10,000 dilution (Promega, Fitchburg, Wis.). […]
A further set of experiments was performed to validate the use of the markers described herein for both diagnosing and determining the efficacy of treatment in human patients having PKD. […] In these experiments, pcy mice were left untreated or were treated with GCS inhibitor C9 for thirty weeks, and then the expression levels of the markers described herein were determined in both kidney lysate and urine exosome samples. […]

jck mice [3] = experiment: Immunoblot of marker levels in kidney lysate of jck mice treated with GCS inhibitor; assay type: in vivo, mouse; conditions: jck mice treated continuously for 5 weeks (0.225% in diet), vs control mice, FIG. 3
Description: as §1, §3
A further set of experiments was performed to determine whether the same markers could be used to determine the efficacy of a treatment for PKD in a patient having PKD. In these experiments, urine samples from jck mice that were treated with GCS inhibitor C9 continuously for 5 weeks were gathered (FIG. 2) and the levels of each biomarker were analyzed in urine exosomes and kidney lysate samples. […] The data in FIG. 3 show, e.g., that the levels of PCNA, cyclin D3, RBBP, MEK, Erk, phosphorylated ERK, Akt, phosphorylated Akt, S6, phosphorylated S6, and caspase-2 are decreased in kidney lysate samples from jck mice treated with a GCS inhibitor as compared to the levels in kidney lysate samples from control mice. The data in FIG. 3 also show, e.g., that the levels of PCNA, cyclin D1, cyclin D3, MEK, and S6 are decreased in urinary exosomes from jck mice treated with a GCS inhibitor as compared to the levels in urinary exosomes from control mice.

pcy mice [4] = conditions: Natoli et al., Nature Medicine 16:788-792, 2010; cited from earlier work
pcy mice [5] = experiment: Immunoblot of marker levels in kidney lysate of pcy mice treated with GCS inhibitor; assay type: in vivo, mouse; conditions: pcy mice treated for thirty weeks (0.225% in diet), vs untreated mice, FIG. 4
Description: as §1, §3
A further set of experiments was performed to validate the use of the markers described herein for both diagnosing and determining the efficacy of treatment in human patients having PKD. In these experiments, another mouse model of PKD, pcy mice were used. The pcy mouse model is a slowly progressive adult form of PKD characterized by cyst formation and fibrosis. […] In these experiments, pcy mice were left untreated or were treated with GCS inhibitor C9 for thirty weeks, and then the expression levels of the markers described herein were determined in both kidney lysate and urine exosome samples. The data from these experiments show the levels of the markers were decreased in both the kidney lysate samples and the urine exosome samples from pcy mice treated with GCS inhibitor C9 as compared to the corresponding levels in the untreated mice (FIG. 4). […] The data in FIG. 4 also show, for example, that the levels of PCNA, phosphorylated Erk, phosphorylated Akt, and S6 are decreased in urinary exosomes from pcy mice treated with GCS inhibitor C9 as compared to the untreated mice.

CCCCCCCCC(=O)N[C@H](CN1CCCC1)[C@H](O)c1ccc2c(c1)OCCO2 [GCS inhibitor C9]
level of MEK (jck mice [1]): decreased | level of PCNA (jck mice [1]): decreased | level of S6 (jck mice [1]): decreased | level of cyclin D1 (jck mice [1]): decreased | level of cyclin D3 (jck mice [1]): decreased | level of PCNA (pcy mice [2]): decreased | level of S6 (pcy mice [2]): decreased | level of phosphorylated Akt (pcy mice [2]): decreased | level of phosphorylated Erk (pcy mice [2]): decreased | level of Akt (jck mice [3]): decreased | level of Erk (jck mice [3]): decreased | level of MEK (jck mice [3]): decreased | level of PCNA (jck mice [3]): decreased | level of RBBP (jck mice [3]): decreased | level of S6 (jck mice [3]): decreased | level of caspase-2 (jck mice [3]): decreased | level of cyclin D3 (jck mice [3]): decreased | level of phosphorylated Akt (jck mice [3]): decreased | level of phosphorylated ERK (jck mice [3]): decreased | level of phosphorylated S6 (jck mice [3]): decreased | cystogenesis (pcy mice [4]): effective inhibition | fibrogenesis (pcy mice [4]): effective inhibition | level of PCNA (pcy mice [5]): decreased | level of S6 (pcy mice [5]): decreased | level of phosphorylated Akt (pcy mice [5]): decreased | level of phosphorylated Erk (pcy mice [5]): decreased | level of phosphorylated S6 (pcy mice [5]): decreased
